The results in this text go back to patent US5360803A, “Composition and method for treating cancer” (Dan Farber Cancer Institute, priority 1992, dated 1994).

For orientation: IC50 means the concentration that inhibits the measured activity by half.

Like-named read-outs stand apart in the source and are kept apart here.

The test system of one assay is CV-1 cells. Description: selective killing assay, colony number reduced to 50% of control, normal monkey kidney epithelial cell line CV-1. The conditions noted are these: 24 hours treatment; for IC50: Primates. It counts as cell-based. The source says: The control received culture media only.
Another assay deals with CX-1 cells. Description: selective killing assay, colony number reduced to 50% of control, human colon carcinoma cell line CX-1.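 As to all read-outs here: colonies stained with crystal violet and counted, control cells given medium alone, exposure at 37 °C, normal monkey kidney epithelial CV-1 cells as the non-cancer comparator.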 It counts as cell-based. The conditions noted are these: for Selectivity (ratio of IC50 for CV-1 and IC50 for CX-1): CV-1/CX-1; for IC50: Homo sapiens, CX-1, Table III.
The subject of a further assay is LOX cells. Description: colony assay of Example 1 with human melanoma LOX cell line.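 As to all read-outs here: colony formation assay with 24 h exposure at 37 °C, then 7 to 10 days of regrowth, crystal violet staining of colonies, control wells given medium alone.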 In kind it is cell-based. The conditions noted are these: for Selectivity: CV-1/LOX; for IC50: Homo sapiens, LOX, 24 h.
A further assay deals with CRL 1420 cells. Briefly: colony assay of Example 1 with human pancreatic carcinoma CRL 1420 cell line.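 As to all read-outs here: colony formation assay, cells exposed for 24 h then regrown 7 to 10 days without compound, colonies stained with crystal violet, control given medium alone, normal reference CV-1 monkey kidney epithelial cells.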 It counts as cell-based. The conditions noted are these: for Selectivity: CV-1/CRL-1420.
A further assay relates to human melanoma LOX. Description: survival of nude mice implanted with human melanoma LOX. In kind it is in vivo, male athymic Swiss nu/nu mouse (human tumor). To be noted: Mus musculus, ip, 24 h, read-out: T/C. The protocol:
LOX, a human melanoma cell line, grown subcutaneously in nude mice was excised, trypsinized to yield a single cell suspension using a metal grid with a […] mesh. […] Five million viable trypan blue negative cells made up in 0.1 ml of Dulbecco modified Eagle medium (DMFE) were injected into the peritoneal cavity of a male athymic Swiss nu/nu mouse. The control group and each treatment group consisted of 5 to 10 mice. Treatment was commenced the following day by intraperitoneal injection.
Ten control mice received 0.25 ml of 2% dextrose on these days the treated groups were injected with the compounds of this invention. […] T/C is the ratio, expressed as a percentage of the mean survival age of the treated group to the mean survival age of the untreated control group.

The test system of the next assay is EJ cells. Description: colony assay of Example 1 with human bladder carcinoma EJ cell line.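 As to all read-outs here: colony formation assay with 24 h compound exposure at 37 °C, then 7–10 days drug-free regrowth, colonies stained with crystal violet, controls given medium alone.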 To be noted: for Selectivity: CV-1/EJ; for IC50: Homo sapiens, EJ, 24 h, Table IV, human bladder carcinoma, 24 hours treatment. In kind it is cell-based.
The mark [1] stands for this setting: Table V, human melanoma, 24 hours treatment.
[2] abbreviates: 10 mg/kg i.p. on day 1, 4, 8, 10, 12.
[3] abbreviates: CV-1, Table III, normal monkey kidney epithelial cells, colony count after 7 to 10 days.
[4] abbreviates: human colon carcinoma, 24 hours treatment, colony count after 7 to 10 days.
Where [5] appears, read: 5 mg/kg i.p. on day 1, 4, 8, 11.

Procedure for EJ cells: Human colon carcinoma cell line CX-1 or normal monkey kidney epithelial cell line CV-1 was chosen as representatives of cancer cells and normal cells, respectively. […] CX-1 cells (2,000 cells/well) and CV-1 cells (1,000 cells/well) were plated in 24-well plastic culture plates. […] The control received culture media only. Cells were treated with compounds of General Formulas (I) to (V) at 37° C. for 24 hours. After rinsing with fresh culture medium three times, the cells were further incubated at 37° C. for 7 to 10 days. Cell colonies were fixed and stained with 2% crystal violet in 70% ethanol for 10 minutes and rinsed in water. […] The selectivity is defined as the ratio of IC50 for CV-1 and IC50 for CX-1.

Regarding `CCn1c(=Cc2sc3c4ccccc4ccc3[n+]2CC)sc(=C2Sc3ccc4ccccc4c3N2C)c1=O` [Compound 204], the “CV-1 (IC50)” value in the assay with CV-1 cells (Table III, normal monkey kidney epithelial cells, colony count after 7 to 10 days) worked out at 20 µg/mL; in the assay on CV-1 cells (Table V) it was 20 µg/mL; in the assay on CV-1 cells (Table VII), 20 µg/mL. The “Selectivity (ratio of IC50 for CV-1 and IC50 for CX-1)” value in the assay with CX-1 cells was found to be 667. Besides, the “CX-1 (IC50)” value in the assay on CX-1 cells (Table III, human colon carcinoma, 24 hours treatment, colony count after 7 to 10 days) stood at 0.03 µg/mL. Further, the Selectivity is listed as 222 with LOX cells and 500 in the assay on CRL 1420 cells. Further, the “LOX(IC50)” value with LOX cells (setting [1]) was 0.09 µg/mL. Also, the “CRL-1420(IC50)” value with CRL 1420 cells (Table VII, human pancreatic carcinoma, 24 hours treatment) came out at 0.04 µg/mL. For the same molecule, the response vs control in vivo at 10 mg/kg in the assay with human melanoma LOX (setting [2]) was > 270%.

Regarding `CCn1c(=Cc2oc3cc4ccccc4cc3[n+]2CC)sc(=C2Sc3ccccc3N2C)c1=O` [Compound 22], the IC50 with CV-1 cells (CV-1, 24 h, Table IV) is 20 µg/mL; in the assay on CV-1 cells (CV-1, 24 h, Table V), 10 µg/mL; in the assay on CV-1 cells (setting [3]), 10 µg/mL; in the assay with CX-1 cells (setting [4]), 0.01 µg/mL; with EJ cells, 0.2 µg/mL; in the assay on LOX cells (setting [1]), 0.1 µg/mL. Besides, the “Selectivity (ratio of IC50 for CV-1 and IC50 for CX-1)” value in the assay with CX-1 cells worked out at 1000. Also, the Selectivity in the assay with EJ cells and in the assay on LOX cells was 100 each time. In addition, the response vs control in vivo at 5 mg/kg with human melanoma LOX (setting [5]) is 179%.

As for `CCn1c(=Cc2sc3c4ccccc4ccc3[n+]2CC)sc(=C2Sc3ccc(OC)cc3N2C)c1=O` [Compound 53], the IC50 in the assay on CV-1 cells (setting [3]) came to 10 µg/mL; in the assay with CX-1 cells (setting [4]), 0.04 µg/mL. Besides, in the assay with CX-1 cells, the “Selectivity (ratio of IC50 for CV-1 and IC50 for CX-1)” value is on record as 250. In addition, in the assay with human melanoma LOX (10 mg/kg i.p. on day 1, 2, 3, 5, 8, 10, 13), the response vs control in vivo at 10 mg/kg amounted to 150%.

Consider `CCn1c(=Cc2sc3ccc4ccccc4c3[n+]2CC)sc(=C2Sc3ccccc3N2C)c1=O` [Compound 30], for which the concentration for half-maximal inhibition (IC50) in the assay on CV-1 cells (setting [3]) was determined as 2 µg/mL; with CX-1 cells (setting [4]) it was 0.01 µg/mL. In addition, the response vs control in vivo at 2.5 mg/kg in the assay with human melanoma LOX (2.5 mg/kg i.p. on day 1, 4, 6, 8) was 171%.

On to `CCn1c(=Cc2sc3ccc4ccccc4c3[n+]2CC)sc(=C2Sc3ccccc3N2C)c1=O` [Compound 338], for which the 50% inhibitory concentration (IC50) with CV-1 cells (CV-1, 24 h, Table V) is 2 µg/mL; with LOX cells (setting [1]), 0.005 µg/mL. Also, the Selectivity in the assay on LOX cells amounted to 400. Also, the response vs control in vivo at 4 mg/kg with human melanoma LOX (4 mg/kg i.p. on day 1, 3, 4, 6, 8, 10, 13) is 194%.

On to `CCn1c(=Cc2scc(C)[n+]2CC)sc(=C2Sc3ccccc3N2C)c1=O` [Compound 339], for which the IC50 with CV-1 cells (CV-1, 24 h, Table V) is 10 µg/mL; in the assay with LOX cells (setting [1]) it was 0.03 µg/mL. Also, the Selectivity in the assay with LOX cells came to 333. The response vs control in vivo at 5 mg/kg with human melanoma LOX (5 mg/kg i.p. on day 1, 4, 8, 10, 12) was > 340%.

Regarding `CCn1c(=Cc2cccc[n+]2CC)sc(=C2Oc3c(ccc4ccccc34)N2C)c1=O` [Compound 214], the concentration for half-maximal inhibition (IC50) in the assay with CV-1 cells (CV-1, 24 h, Table V) came out at 20 µg/mL; in the assay with LOX cells (setting [1]), 0.04 µg/mL. Moreover, the Selectivity in the assay on LOX cells turned out to be 500. Further, in the assay on human melanoma LOX (setting [2]), the response vs control in vivo at 10 mg/kg is > 300%.

Take `CCn1c(=Cc2cc[n+](CC)c3ccccc23)sc(=C2Sc3ccc4ccccc4c3N2C)c1=O` [Compound 90]: the IC50 with CV-1 cells (setting [3]) was 8 µg/mL; in the assay on CX-1 cells (setting [4]), 0.04 µg/mL. Besides, in the assay with CX-1 cells, the “Selectivity (ratio of IC50 for CV-1 and IC50 for CX-1)” value amounted to 200. In addition, the response vs control in vivo at 5 mg/kg with human melanoma LOX (5 mg/kg i.p. on day 1, 8, 13) came out at 163%.

With `CCn1c(=Cc2sc3ccccc3[n+]2CC)sc(=C2Sc3ccc4ccccc4c3N2C)c1=O` [Compound 310], the concentration for half-maximal inhibition (IC50) in the assay on CV-1 cells (CV-1, 24 h, Table IV) came out at 2 µg/mL; in the assay with CV-1 cells (CV-1, 24 h, Table V), 2 µg/mL; with CV-1 cells (CV-1, 24 h, Table VII), 2 µg/mL; in the assay with EJ cells it was 0.005 µg/mL; with LOX cells (setting [1]) it was 0.005 µg/mL; in the assay with CRL 1420 cells (Homo sapiens, 24 h, Table VII, human pancreatic carcinoma, 24 hours treatment), 0.005 µg/mL. The Selectivity in the assay on EJ cells, in the assay with LOX cells and in the assay with CRL 1420 cells was 400 in each case. Moreover, the response vs control in vivo at 8 mg/kg with human melanoma LOX (8 mg/kg i.p. on day 1, 3, 4, 6, 8, 10) is 206%.

As for `CCn1c(=Cc2oc3ccccc3[n+]2C)oc(=C2Sc3ccccc3N2C)c1=O` [Compound 11], the IC50 is > 20 µg/mL in the assay with CV-1 cells (CV-1, 24 h, Table IV); > 30 µg/mL in the assay with CV-1 cells (CV-1, 24 h, Table V); > 20 µg/mL in the assay on CV-1 cells (setting [3]); 0.03 µg/mL with CX-1 cells (setting [4]); 0.05 µg/mL with EJ cells; < 0.1 µg/mL with LOX cells (setting [1]). Also, the “Selectivity (ratio of IC50 for CV-1 and IC50 for CX-1)” value with CX-1 cells is recorded as > 667. In addition, the results for the Selectivity in the assay with EJ cells and in the assay on LOX cells were > 400 and > 300, respectively. Besides, the response vs control in vivo at 5 mg/kg with human melanoma LOX (setting [5]) was 132%.
